# Measurements taken from article PMC9897768, “Discovery of new 6-ureido/amidocoumarins as highly potent and selective inhibitors for the tumour-relevant carbonic anhydrases IX and XII” (Journal of Enzyme Inhibition and Medicinal Chemistry, 2023).
# Tests used:
# HCT-116 cells = experiment: MTT antiproliferative assay, HCT-116; assay type: cell-based, human; details: mean ± SEM of three experiments; for inhibition at 10 µM / inhibition at 100 µM: Homo sapiens; for inhibition at 10 µM: HCT-116, HCT116, 10 µM, read-out: % Growth inhibition HCT116 10 µM; for inhibition at 100 µM: HCT-116, HCT116, 100 µM, read-out: % Growth inhibition HCT116 100 µM
# Procedure: (§1) Encouraged by the favourable selectivity profile of ureidocoumarins 5a–p and amidocoumarins 7a–c towards hCA IX and hCA XII, they were further examined for their prospective antiproliferative activity against human colorectal (HCT-116) and breast (MCF-7) cancer cell lines, adopting the MTT assay.
# (§2) The evaluation of anticancer activity of the target compounds was conducted by MTT assay adopting the literature procedure.
# hCA XII = hCA XII (Homo sapiens, UniProt O43570); experiment: stopped-flow CO2 hydrase assay, hCA XII; assay type: biochemical; details: incubation time 6 h, mean of three experiments
# Chain of hCA XII (O43570 25-354): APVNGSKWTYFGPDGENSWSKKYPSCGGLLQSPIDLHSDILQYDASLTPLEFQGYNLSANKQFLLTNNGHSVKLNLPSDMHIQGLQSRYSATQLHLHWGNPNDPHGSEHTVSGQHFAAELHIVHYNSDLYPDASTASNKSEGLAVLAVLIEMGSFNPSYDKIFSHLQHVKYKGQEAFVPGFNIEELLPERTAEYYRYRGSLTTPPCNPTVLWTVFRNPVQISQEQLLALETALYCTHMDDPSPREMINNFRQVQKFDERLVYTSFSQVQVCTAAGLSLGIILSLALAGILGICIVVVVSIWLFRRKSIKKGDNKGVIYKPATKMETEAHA
# Procedure: (§3) The target coumarins 5a–p and 7a–c were examined for their CA inhibitory actions towards the ubiquitous CA I and II (cytosolic) as well as the tumour-associated CA IX and XII isozymes by the use of a stopped-flow CO2 hydrase assay, using acetazolamide (AZA) as a reference compound.
# (§4) The experimental procedures utilised for CA inhibitory assay of the target compounds were carried out as described earlier, and presented in the Supplementary Materials.
# MCF-7 cells = experiment: MTT antiproliferative assay, MCF-7; assay type: cell-based, human; details: mean ± SEM of three experiments; for inhibition at 10 µM / inhibition at 100 µM: Homo sapiens; for inhibition at 10 µM: MCF7, MCF7, 10 µM, read-out: % Growth inhibition MCF7 10 µM; for inhibition at 100 µM: MCF7, MCF7, 100 µM, read-out: % Growth inhibition MCF7 100 µM
# Procedure: as §1, §2
# hCA IX = hCA IX (Homo sapiens, UniProt Q16790); experiment: stopped-flow CO2 hydrase assay, hCA IX; assay type: biochemical; details: incubation time 6 h, mean of three experiments
# Procedure: as §3, §4
# hCA II = hCA II (Homo sapiens, UniProt P00918); experiment: stopped-flow CO2 hydrase assay, hCA II; assay type: biochemical; details: incubation time 6 h, mean of three experiments
# Procedure: as §3, §4
# hCA I = hCA I (Homo sapiens, UniProt P00915); experiment: stopped-flow CO2 hydrase assay, hCA I; assay type: biochemical; details: incubation time 6 h, mean of three experiments
# Chain of hCA I (P00915 whole entry): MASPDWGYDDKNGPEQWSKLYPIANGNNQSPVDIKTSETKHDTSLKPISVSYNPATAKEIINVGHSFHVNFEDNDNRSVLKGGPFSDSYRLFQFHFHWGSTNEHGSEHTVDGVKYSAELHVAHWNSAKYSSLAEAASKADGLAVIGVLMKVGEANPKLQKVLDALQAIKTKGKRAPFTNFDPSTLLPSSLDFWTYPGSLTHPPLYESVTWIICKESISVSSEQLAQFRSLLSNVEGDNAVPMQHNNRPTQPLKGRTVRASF
# Procedure: as §3, §4
Compound,inhibition at 10 µM (HCT-116 cells),inhibition at 100 µM (HCT-116 cells),Ki (hCA XII),melting point,inhibition at 10 µM (MCF-7 cells),inhibition at 100 µM (MCF-7 cells),Ki (hCA IX),Ki (hCA II),Ki (hCA I),"% Growth inhibition HCT116 10 µM (HCT-116 cells; HCT116, 10 µM)","% Growth inhibition HCT116 100 µM (HCT-116 cells; HCT116, 100 µM)","% Growth inhibition MCF7 10 µM (MCF-7 cells; MCF7, 10 µM)","% Growth inhibition MCF7 100 µM (MCF-7 cells; MCF7, 100 µM)"
"O=C(Nc1ccc(Br)cc1)Nc1ccc2oc(=O)ccc2c1 [Compound 5d, 1-(4-Bromophenyl)-3-(2-oxo-2H-chromen-6-yl)urea]",25.4 ± 2.7%,31.7 ± 3.5%,51.1 nM,257 to 258 °C,18.2 ± 3.2%,18.5 ± 4.5%,70.6 nM,> 100000 nM,> 100000 nM,–,–,–,–
"CCCCOc1ccc(NC(=O)Nc2ccc3oc(=O)ccc3c2)cc1 [Compound 5f, 1-(4-Butoxyphenyl)-3-(2-oxo-2H-chromen-6-yl)urea]",15 ± 5.2%,67.7 ± 0.6%,81.8 nM,234 to 235 °C,32.3 ± 2.6%,46.9 ± 3.4%,32.5 nM,> 100000 nM,> 100000 nM,–,–,–,–
"O=C(Nc1cc(C(F)(F)F)cc(C(F)(F)F)c1)Nc1ccc2oc(=O)ccc2c1 [Compound 5i, 1-(3,5-Bis(trifluoromethyl)phenyl)-3-(2-oxo-2H-chromen-6-yl)urea]",–,> 90%,5.9 nM,–,> 50%,> 90%,14.7 nM,> 100000 nM,> 100000 nM,70.4 ± 2.6%,94.2 ± 1.1%,51.5 ± 3.1%,93.9 ± 0.4%
O=C(Nc1ccc(C(F)(F)F)cc1)Nc1ccc2oc(=O)ccc2c1 [Compound 5b],7.6 ± 2.8%,77 ± 4%,38.5 nM,276 to 278 °C,4.2 ± 1.4%,77.8 ± 5.1%,71.4 nM,> 100000 nM,> 100000 nM,–,–,–,–
"O=C(Nc1ccc2oc(=O)ccc2c1)c1ccc(Cl)c(C(F)(F)F)c1 [Compound 7a, 4-Chloro-N-(2-oxo-2H-chromen-6-yl)-3-(trifluoromethyl)benzamide]",14 ± 2.4%,42.2 ± 2.5%,42.8 nM,272 to 273 °C,9.9 ± 3.4%,19 ± 2.1%,82.4 nM,> 100000 nM,> 100000 nM,–,–,–,–
"O=C(Nc1cc(Cl)cc(Cl)c1)Nc1ccc2oc(=O)ccc2c1 [Compound 5j, 1-(3,5-Dichlorophenyl)-3-(2-oxo-2H-chromen-6-yl)urea]",19.2 ± 3.8%,91.9 ± 1.1%,23.4 nM,252 to 253 °C,6.1 ± 2%,91.1 ± 0.6%,19.9 nM,> 100000 nM,> 100000 nM,–,–,–,–
"CCCCc1ccc(NC(=O)Nc2ccc3oc(=O)ccc3c2)cc1 [Compound 5e, 1-(4-Butylphenyl)-3-(2-oxo-2H-chromen-6-yl)urea]",20.1 ± 2.5%,65 ± 6%,95.1 nM,223 to 224 °C,38.2 ± 2.5%,46.4 ± 4.9%,54.7 nM,> 100000 nM,> 100000 nM,–,–,–,–
"O=C(Nc1ccc2oc(=O)ccc2c1)Nc1ccc(F)cc1F [Compound 5m, 1-(2,4-Difluorophenyl)-3-(2-oxo-2H-chromen-6-yl)urea]",25.7 ± 2.3%,26.1 ± 4%,7.2 nM,–,15.2 ± 1.4%,22.7 ± 3.3%,25.6 nM,> 100000 nM,> 100000 nM,–,–,–,–
"O=C(Nc1ccc(Cl)c(C(F)(F)F)c1)Nc1ccc2oc(=O)ccc2c1 [Compound 5g, 1-(4-Chloro-3-(trifluoromethyl)phenyl)-3-(2-oxo-2H-chromen-6-yl)urea]",15.2 ± 4.4%,90.5 ± 1.4%,29.4 nM,253 to 255 °C,10 ± 2.4%,92.3 ± 0.6%,66.4 nM,> 100000 nM,> 100000 nM,–,–,–,–
"O=C(Nc1ccc2oc(=O)ccc2c1)Nc1ccc(Cl)cc1Cl [Compound 5l, 1-(2,4-Dichlorophenyl)-3-(2-oxo-2H-chromen-6-yl)urea]",2.6 ± 1.8%,6.7 ± 1.7%,56.7 nM,291 to 292 °C,5.9 ± 2.7%,6.6 ± 2.5%,50.6 nM,> 100000 nM,> 100000 nM,–,–,–,–
